For experiment [1], the system named is K562 cells (BCR-ABL positive). The experiment can be described thus: Half inhibitory concentration (IC50) on tumor cells, CCK-8, K562. As to conditions: Homo sapiens, K562, 48 h, read-out: IC50 (nM)/K562 cell line.
Protocol: Determination of Half Inhibitory Concentration (IC50) of PROTAD Compounds on Tumor Cells
K562 cells were seeded in 100 μL of RPMI1640 complete medium at a density of 20,000 cells/well. 100 μL of the inoculated cells were treated with 100 μL diluted PROTAD compound of the present disclosure to be tested at 9 successively decreasing concentrations (starting at the highest concentration of 10 μM; 3-fold serial dilutions). After the cells were treated with the tested drugs for 48 hours, the cell viability determination was performed in accordance with CCK-8 reagent operating instructions. The negative control was DMSO, and positive control was a commercial inhibitor. After CCK-8 treatment for 2 h, the value of O.D.450 was measured using a microplate reader.
The test system of experiment [2] is CDK4/6 protein. The experiment is described as follows: Western-blot determination of CDK4/6 protein degradation (DC50) in T-47D cells. Format: cell-based, human. The conditions noted are these: 24 h drug treatment, read-out: DC50(nM)/T-47D cell line.

As for `Cc1ccc(C(=O)Nc2ccc(CN3CCN(C(=O)CCCCSc4cccc5c4CN(C4CCC(=O)NC4=O)C5=O)CC3)c(C(F)(F)F)c2)cc1C#Cc1cnc2cccnn12` (centres unmarked) [SIAIS220054, N-(4-((4-(5-((2-(2,6-dioxopiperidin-3-yl)-1-oxoisoindolin-4-yl)thio)pentanoyl)piperazin-1-yl)methyl)-3-(trifluoromethyl)phenyl)-3-(imidazo[1,2-b]pyridazin-3-ylethynyl)-4-methylbenzamide], the IC50 in experiment [1] amounted to 2.68 nM.
On the same count and under the same terms, under `Cc1ccc(C(=O)Nc2ccc(CN3CCN(C(=O)CCCCCCSc4cccc5c4CN(C4CCC(=O)NC4=O)C5=O)CC3)c(C(F)(F)F)c2)cc1C#Cc1cnc2cccnn12` (centres unmarked) [SIAIS220056, N-(4-((4-(7-((2-(2,6-dioxopiperidin-3-yl)-1-oxoisoindolin-4-yl)thio)heptanoyl)piperazin-1-yl)methyl)-3-(trifluoromethyl)phenyl)-3-(imidazo[1,2-b]pyridazin-3-ylethynyl)-4-methylbenzamide] stands 5.98 nM; under `COc1cc(Nc2c(C#N)cnc3cc(OCCCN4CCN(C(=O)CCCSc5cccc6c5C(=O)N(C5CCC(=O)NC5=O)C6=O)CC4)c(OC)cc23)c(Cl)cc1Cl` (centres unmarked) [SIAIS151170, 4-((2,4-dichloro-5-methoxyphenyl)amino)-7-(3-(4-(4-((2-(2,6-dioxopiperidin-3-yl)-1,3-dioxoisoindolin-4-yl)thio)butanoyl)piperazin-1-yl)propoxy)-6-methoxyquinoline-3-carbonitrile], 400 nM; under `Cc1ccc(C(=O)Nc2ccc(CN3CCN(C(=O)CCCSc4cccc5c4CN(C4CCC(=O)NC4=O)C5=O)CC3)c(C(F)(F)F)c2)cc1C#Cc1cnc2cccnn12` (centres unmarked) [SIAIS220053, N-(4-((4-(4-((2-(2,6-dioxopiperidin-3-yl)-1-oxoisoindolin-4-yl)thio)butanoyl)piperazin-1-yl)methyl)-3-(trifluoromethyl)phenyl)-3-(imidazo[1,2-b]pyridazin-3-ylethynyl)-4-methylbenzamide], 4.06 nM.
For the compound `Cc1ccc(C(=O)Nc2ccc(CN3CCN(C(=O)CCCCSc4cccc5c4C(=O)N(C4CCC(=O)NC4=O)C5=O)CC3)c(C(F)(F)F)c2)cc1C#Cc1cnc2cccnn12` (centres unmarked) [SIAIS220048, N-(4-((4-(5-((2-(2,6-dioxopiperidin-3-yl)-1,3-dioxoisoindolin-4-yl)thio)pentanoyl)piperazin-1-yl)methyl)-3-(trifluoromethyl)phenyl)-3-(imidazo[1,2-b]pyridazin-3-ylethynyl)-4-methylbenzamide], the IC50 in experiment [1] came to 4.06 nM.
On the same count and under the same terms, in the case of `COc1cc(Nc2c(C#N)cnc3cc(OCCCN4CCN(C(=O)CCCCCCSc5cccc6c5C(=O)N(C5CCC(=O)NC5=O)C6=O)CC4)c(OC)cc23)c(Cl)cc1Cl` (centres unmarked) [SIAIS151173, 4-((2,4-dichloro-5-methoxyphenyl)amino)-7-(3-(4-(7-((2-(2,6-dioxopiperidin-3-yl)-1,3-dioxoisoindolin-4-yl)thio)heptanoyl)piperazin-1-yl)propoxy)-6-methoxyquinoline-3-carbonitrile] it was 8260 nM; in that of `Cc1ccc(C(=O)Nc2ccc(CN3CCN(C(=O)CCSc4cccc5c4CN(C4CCC(=O)NC4=O)C5=O)CC3)c(C(F)(F)F)c2)cc1C#Cc1cnc2cccnn12` (centres unmarked) [SIAIS220052, N-(4-((4-(3-((2-(2,6-dioxopiperidin-3-yl)-1-oxoisoindolin-4-yl)thio)propanoyl)piperazin-1-yl)methyl)-3-(trifluoromethyl)phenyl)-3-(imidazo[1,2-b]pyridazin-3-ylethynyl)-4-methylbenzamide], 2.62 nM.
Still for that read-out and setting: in the case of `COc1cc(Nc2c(C#N)cnc3cc(OCCCN4CCN(C(=O)CCCCSc5cccc6c5C(=O)N(C5CCC(=O)NC5=O)C6=O)CC4)c(OC)cc23)c(Cl)cc1Cl` (centres unmarked) [SIAIS151171, 4-((2,4-dichloro-5-methoxyphenyl)amino)-7-(3-(4-(5-((2-(2,6-dioxopiperidin-3-yl)-1,3-dioxoisoindolin-4-yl)thio)pentanoyl)piperazin-1-yl)propoxy)-6-methoxyquinoline-3-carbonitrile] it was 1540 nM.
On the same count and under the same terms, under `Cc1ccc(C(=O)Nc2ccc(CN3CCN(C(=O)CSc4cccc5c4CN(C4CCC(=O)NC4=O)C5=O)CC3)c(C(F)(F)F)c2)cc1C#Cc1cnc2cccnn12` (centres unmarked) [SIAIS220051, N-(4-((4-(2-((2-(2,6-dioxopiperidin-3-yl)-1-oxoisoindolin-4-yl)thio)acetyl)piperazin-1-yl)methyl)-3-(trifluoromethyl)phenyl)-3-(imidazo[1,2-b]pyridazin-3-ylethynyl)-4-methylbenzamide] stands 1.78 nM.
As for `Cc1ccc(C(=O)Nc2ccc(CN3CCN(C(=O)CCCSc4cccc5c4C(=O)N(C4CCC(=O)NC4=O)C5=O)CC3)c(C(F)(F)F)c2)cc1C#Cc1cnc2cccnn12` (centres unmarked) [SIAIS220047, N-(4-((4-(4-((2-(2,6-dioxopiperidin-3-yl)-1,3-dioxoisoindolin-4-yl)thio)butanoyl)piperazin-1-yl)methyl)-3-(trifluoromethyl)phenyl)-3-(imidazo[1,2-b]pyridazin-3-ylethynyl)-4-methylbenzamide], the IC50 in experiment [1] came to 3.23 nM.
Still for that read-out and setting: in the case of `Cc1ccc(C(=O)Nc2ccc(CN3CCN(C(=O)CCCCCSc4cccc5c4CN(C4CCC(=O)NC4=O)C5=O)CC3)c(C(F)(F)F)c2)cc1C#Cc1cnc2cccnn12` (centres unmarked) [SIAIS220055, N-(4-((4-(6-((2-(2,6-dioxopiperidin-3-yl)-1-oxoisoindolin-4-yl)thio)hexanoyl)piperazin-1-yl)methyl)-3-(trifluoromethyl)phenyl)-3-(imidazo[1,2-b]pyridazin-3-ylethynyl)-4-methylbenzamide] it was 5.58 nM.
With `CC(=O)c1c(C)c2cnc(Nc3ccc(N4CCN(C(=O)COCCOCCOCCOCCOCCSc5cccc6c5C(=O)N(C5CCC(=O)NC5=O)C6=O)CC4)cn3)nc2n(C2CCCC2)c1=O` (centres unmarked) [SIAIS219062, 4-((17-(4-(6-((6-acetyl-8-cyclopentyl-5-methyl-7-oxo-7,8-dihydropyrido[2,3-d]pyrimidin-2-yl)amino)pyridin-3-yl)piperazin-1-yl)-17-oxo-3,6,9,12,15-pentaoxaheptadecyl)thio)-2-(2,6-dioxopiperidin-3-yl)isoindoline-1,3-dione], the DC50 in experiment [2] is 1 to 10 nM.
Still for that read-out and setting: under `Cc1nc2c(F)cc(-c3nc(Nc4ccc(CN5CCN(C(=O)CSc6cccc7c6CN(C6CCC(=O)NC6=O)C7=O)CC5)cn4)ncc3F)cc2n1C(C)C` (centres unmarked) [SIAIS262164, 3-(4-((2-(4-((6-((5-fluoro-4-(4-fluoro-1-isopropyl-2-methyl-1H-benzo[d]imidazol-6-yl)pyrimidin-2-yl)amino)pyridin-3-yl)methyl)piperazin-1-yl)-2-oxoethyl)thio)-1-oxoisoindolin-2-yl)piperidine-2,6-dione] stands 0.5 to 5 nM.
Still for that read-out and setting: in the case of `Cc1nc2c(F)cc(-c3nc(Nc4ccc(CN5CCN(CCCCCCSc6cccc7c6CN(C6CCC(=O)NC6=O)C7=O)CC5)cn4)ncc3F)cc2n1C(C)C` (centres unmarked) [SIAIS262173, 3-(4-((6-(4-((6-((5-fluoro-4-(4-fluoro-1-isopropyl-2-methyl-1H-benzo[d]imidazol-6-yl)pyrimidin-2-yl)amino)pyridin-3-yl)methyl)piperazin-1-yl)hexyl)thio)-1-oxoisoindolin-2-yl)piperidine-2,6-dione] it was 0.05 to 0.5 nM; in that of `CN(C)C(=O)c1cc2cnc(Nc3ccc(N4CCN(C(=O)CCCCSc5cccc6c5C(=O)N(C5CCC(=O)NC5=O)C6=O)CC4)cn3)nc2n1C1CCCC1` (centres unmarked) [SIAIS219103, 7-cyclopentyl-2-((5-(4-(5-((2-(2,6-dioxopiperidin-3-yl)-1,3-dioxoisoindolin-4-yl)thio)pentanoyl)piperazin-1-yl)pyridin-2-yl)amino)-N,N-dimethyl-7H-pyrrolo[2,3-d]pyrimidine-6-carboxamide], less than 1 nM; in that of `CN(C)C(=O)c1cc2cnc(Nc3ccc(N4CCN(C(=O)CCCCCSc5cccc6c5CN(C5CCC(=O)NC5=O)C6=O)CC4)cn3)nc2n1C1CCCC1` (centres unmarked) [SIAIS219090, 7-cyclopentyl-2-((5-(4-(6-((2-(2,6-dioxopiperidin-3-yl)-1-oxoisoindolin-4-yl)thio)hexanoyl)piperazin-1-yl)pyridin-2-yl)amino)-N,N-dimethyl-7H-pyrrolo[2,3-d]pyrimidine-6-carboxamide], 0.2 to 1 nM.
Same read-out and setting: under `CC(=O)c1c(C)c2cnc(Nc3ccc(N4CCN(C(=O)CCSc5cccc6c5C(=O)N(C5CCC(=O)NC5=O)C6=O)CC4)cn3)nc2n(C2CCCC2)c1=O` (centres unmarked) [SIAIS184086, 4-((3-(4-(6-((6-acetyl-8-cyclopentyl-5-methyl-7-oxo-7,8-dihydropyrido[2,3-d]pyrimidin-2-yl)amino)pyridin-3-yl)piperazin-1-yl)-3-oxopropyl)thio)-2-(2,6-dioxopiperidin-3-yl)isoindoline-1,3-dione] stands greater than 500 nM; under `CN(C)C(=O)c1cc2cnc(Nc3ccc(N4CCN(C(=O)COCCOCCOCCOCCSc5cccc6c5C(=O)N(C5CCC(=O)NC5=O)C6=O)CC4)cn3)nc2n1C1CCCC1` (centres unmarked) [SIAIS219114, 7-cyclopentyl-2-((5-(4-(14-((2-(2,6-dioxopiperidin-3-yl)-1,3-dioxoisoindolin-4-yl)thio)-3,6,9,12-tetraoxatetradecanoyl)piperazin-1-yl)pyridin-2-yl)amino)-N,N-dimethyl-7H-pyrrolo[2,3-d]pyrimidine-6-carboxamide], 1 to 10 nM; under `Cc1nc2c(F)cc(-c3nc(Nc4ccc(CN5CCN(C(=O)CCSc6cccc7c6CN(C6CCC(=O)NC6=O)C7=O)CC5)cn4)ncc3F)cc2n1C(C)C` (centres unmarked) [SIAIS262165, 3-(4-((3-(4-((6-((5-fluoro-4-(4-fluoro-1-isopropyl-2-methyl-1H-benzo[d]imidazol-6-yl)pyrimidin-2-yl)amino)pyridin-3-yl)methyl)piperazin-1-yl)-3-oxopropyl)thio)-1-oxoisoindolin-2-yl)piperidine-2,6-dione], 5 nM.
Regarding `CC(=O)c1c(C)c2cnc(Nc3ccc(N4CCN(C(=O)CCCSc5cccc6c5CN(C5CCC(=O)NC5=O)C6=O)CC4)cn3)nc2n(C2CCCC2)c1=O` (centres unmarked) [SIAIS219053, 3-(4-((4-(4-(6-((6-acetyl-8-cyclopentyl-5-methyl-7-oxo-7,8-dihydropyrido[2,3-d]pyrimidin-2-yl)amino)pyridin-3-yl)piperazin-1-yl)-4-oxobutyl)thio)-1-oxoisoindolin-2-yl)piperidine-2,6-dione], in experiment [2], the DC50 was less than 1 nM.

For the origin of these results see US12226424B2, “Target protein degradation compounds, their anti-tumor use, their intermediates and use of intermediates” (ShanghaiTech University, priority 2018, dated 2025).
